Results taken from PubChem BioAssay AID248 (DTP/NCI, 2004).
Values joined by “and” are separate entries in the source; they are usually repeats but may differ in a detail not shown here. Identical values can stand only once. Inconclusive results and toxic doses are left out.

Tested on: L1210 leukemia ip in BDF1 mice, survival T/C
Experiment: NCI In Vivo Anticancer Drug Screen. Data for tumor model L1210 Leukemia (intraperitoneal) in B6D2F1 (BDF1) mice
Conditions: higher = longer survival
Method in brief: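 Tumor was transplanted into mice, which were then dosed with test compound or vehicle alone. Survival was recorded for each group, and the treated figure was expressed relative to the control figure.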

[1] = endpoint: mean survival time, dose: 25.0 mg/kg/injection, schedule: Q01DX009 (ip), vehicle: saline
[2] = endpoint: mean survival time, dose: 50.0 mg/kg/injection, schedule: Q01DX009 (ip), vehicle: saline

Nc1nc(=S)c2ncn(C3CC(O)C(CO)O3)c2[nH]1 (stereo not given)
T/C (endpoint: mean survival time, dose: 0.15 mg/kg/injection, schedule: Q01DX015 (ip), vehicle: carboxymethylcellulose (CMC)): 121 % of control | T/C (endpoint: mean survival time, dose: 0.31 mg/kg/injection, schedule: Q01DX009 (ip), vehicle: saline): 119 % of control | T/C (endpoint: mean survival time, dose: 0.32 mg/kg/injection, schedule: Q01DX015 (ip), vehicle: carboxymethylcellulose (CMC)): 124 % of control | T/C (endpoint: mean survival time, dose: 0.62 mg/kg/injection, schedule: Q01DX005 (ip), vehicle: clinical formulation): 153 % of control | T/C (endpoint: mean survival time, dose: 0.62 mg/kg/injection, schedule: Q01DX009 (ip), vehicle: saline): 150 % of control | T/C (endpoint: mean survival time, dose: 0.62 mg/kg/injection, schedule: Q01DX015 (ip), vehicle: carboxymethylcellulose (CMC)): 151 % of control | T/C (endpoint: mean survival time, dose: 0.63 mg/kg/injection, schedule: Q03HX008 (ip), vehicle: saline): 162 % of control | T/C (endpoint: mean survival time, dose: 0.63 mg/kg/injection, schedule: Q03HX024 (ip), vehicle: saline): 167 % of control | T/C (endpoint: mean survival time, dose: 0.9 mg/kg/injection, schedule: Q01DX009 (ip), vehicle: saline with Tween-80): 150 % of control | T/C (endpoint: mean survival time, dose: 1.25 mg/kg/injection, schedule: Q01DX005 (ip), vehicle: clinical formulation): 150 % of control and 171 % of control | T/C (endpoint: mean survival time, dose: 1.25 mg/kg/injection, schedule: Q01DX005 (ip), vehicle: saline): 154 % of control | T/C (endpoint: mean survival time, dose: 1.25 mg/kg/injection, schedule: Q01DX005 (ip), vehicle: water): 163 % of control | T/C (endpoint: mean survival time, dose: 1.25 mg/kg/injection, schedule: Q01DX009 (ip), vehicle: saline): 156 % of control | T/C (endpoint: mean survival time, dose: 1.25 mg/kg/injection, schedule: Q01DX015 (ip), vehicle: carboxymethylcellulose (CMC)): 180 % of control and 218 % of control | T/C (endpoint: mean survival time, dose: 1.25 mg/kg/injection, schedule: Q03HX008 (ip), vehicle: saline): 155 % of control | T/C (endpoint: mean survival time, dose: 1.25 mg/kg/injection, schedule: Q03HX016 (ip), vehicle: saline): 163 % of control | T/C (endpoint: mean survival time, dose: 1.25 mg/kg/injection, schedule: Q03HX024 (ip), vehicle: saline): 157 % of control | T/C (endpoint: mean survival time, dose: 1.56 mg/kg/injection, schedule: Q01DX009 (ip), vehicle: saline): 161 % of control and 173 % of control | T/C (endpoint: mean survival time, dose: 1.87 mg/kg/injection, schedule: Q01DX015 (ip), vehicle: carboxymethylcellulose (CMC)): 113 % of control | T/C (endpoint: mean survival time, dose: 2.5 mg/kg/injection, schedule: Q01DX001 (ip), vehicle: saline): 120 % of control | T/C (endpoint: mean survival time, dose: 2.5 mg/kg/injection, schedule: Q01DX002 (ip), vehicle: Klucel (hydroxypropylcellulose) (HPC)): 177 % of control | T/C (endpoint: mean survival time, dose: 2.5 mg/kg/injection, schedule: Q01DX005 (ip), vehicle: clinical formulation): 173 % of control and 178 % of control | T/C (endpoint: mean survival time, dose: 2.5 mg/kg/injection, schedule: Q01DX005 (ip), vehicle: saline): 171 % of control | T/C (endpoint: mean survival time, dose: 2.5 mg/kg/injection, schedule: Q01DX005 (ip), vehicle: water): 173 % of control | T/C (endpoint: mean survival time, dose: 2.5 mg/kg/injection, schedule: Q01DX009 (ip), vehicle: saline): 161 % of control | T/C (endpoint: mean survival time, dose: 2.5 mg/kg/injection, schedule: Q01DX015 (ip), vehicle: carboxymethylcellulose (CMC)): 155 % of control and 187 % of control | T/C (endpoint: mean survival time, dose: 2.5 mg/kg/injection, schedule: Q03HX008 (ip), vehicle: saline): 156 % of control | T/C (endpoint: mean survival time, dose: 2.5 mg/kg/injection, schedule: Q03HX016 (ip), vehicle: saline): 167 % of control | T/C (endpoint: mean survival time, dose: 2.5 mg/kg/injection, schedule: Q04DX003 (ip), vehicle: saline): 155 % of control | T/C (endpoint: mean survival time, dose: 2.5 mg/kg/injection, schedule: Q08DX002 (ip), vehicle: saline): 124 % of control | T/C (endpoint: mean survival time, dose: 3.12 mg/kg/injection, schedule: Q01DX009 (ip), vehicle: saline): 191 % of control and 206 % of control | T/C (endpoint: mean survival time, dose: 4.5 mg/kg/injection, schedule: Q01DX009 (ip), vehicle: saline with Tween-80): 208 % of control | T/C (endpoint: mean survival time, dose: 5.0 mg/kg/injection, schedule: Q01DX005 (ip), vehicle: clinical formulation): 166 % of control and 202 % of control | T/C (endpoint: mean survival time, dose: 5.0 mg/kg/injection, schedule: Q01DX005 (ip), vehicle: saline): 158 % of control | T/C (endpoint: mean survival time, dose: 5.0 mg/kg/injection, schedule: Q01DX005 (ip), vehicle: water): 192 % of control | T/C (endpoint: mean survival time, dose: 5.0 mg/kg/injection, schedule: Q01DX009 (ip), vehicle: saline): 156 % of control | T/C (endpoint: mean survival time, dose: 5.0 mg/kg/injection, schedule: Q01DX015 (ip), vehicle: carboxymethylcellulose (CMC)): 166 % of control | T/C (endpoint: mean survival time, dose: 5.0 mg/kg/injection, schedule: Q03HX024 (ip), vehicle: saline): 97 % of control | T/C (endpoint: mean survival time, dose: 5.0 mg/kg/injection, schedule: Q04DX003 (ip), vehicle: saline): 152 % of control | T/C (endpoint: mean survival time, dose: 6.0 mg/kg/injection, schedule: Q01DX005 (oral), vehicle: saline): 108 % of control | T/C (endpoint: mean survival time, dose: 6.25 mg/kg/injection, schedule: Q01DX009 (ip), vehicle: saline): 153 % of control | T/C (endpoint: mean survival time, dose: 7.0 mg/kg/injection, schedule: Q01DX015 (ip), vehicle: carboxymethylcellulose (CMC)): 150 % of control | T/C (endpoint: mean survival time, dose: 7.5 mg/kg/injection, schedule: Q01DX015 (ip), vehicle: carboxymethylcellulose (CMC)): 151 % of control | T/C (endpoint: mean survival time, dose: 10.0 mg/kg/injection, schedule: Q01DX005 (ip), vehicle: clinical formulation): 154 % of control and 198 % of control | T/C (endpoint: mean survival time, dose: 10.0 mg/kg/injection, schedule: Q01DX005 (ip), vehicle: saline): 219 % of control | T/C (endpoint: mean survival time, dose: 10.0 mg/kg/injection, schedule: Q01DX005 (ip), vehicle: water): 156 % of control | T/C (endpoint: mean survival time, dose: 10.0 mg/kg/injection, schedule: Q01DX009 (ip), vehicle: saline): 95 % of control | T/C (endpoint: mean survival time, dose: 10.0 mg/kg/injection, schedule: Q01DX015 (ip), vehicle: carboxymethylcellulose (CMC)): 114 % of control | T/C (endpoint: mean survival time, dose: 10.0 mg/kg/injection, schedule: Q03HX008 (ip), vehicle: saline): 86 % of control | T/C (endpoint: mean survival time, dose: 10.0 mg/kg/injection, schedule: Q04DX003 (ip), vehicle: Klucel (hydroxypropylcellulose) (HPC)): 156 % of control | T/C (endpoint: mean survival time, dose: 10.0 mg/kg/injection, schedule: Q04DX003 (ip), vehicle: saline): 170 % of control | T/C (endpoint: mean survival time, dose: 10.0 mg/kg/injection, schedule: Q08DX002 (ip), vehicle: saline): 154 % of control | T/C (endpoint: mean survival time, dose: 12.0 mg/kg/injection, schedule: Q01DX005 (oral), vehicle: saline): 116 % of control | T/C (endpoint: mean survival time, dose: 15.0 mg/kg/injection, schedule: Q01DX015 (ip), vehicle: carboxymethylcellulose (CMC)): 106 % of control and 155 % of control and 236 % of control | T/C (endpoint: mean survival time, dose: 20.0 mg/kg/injection, schedule: Q01DX002 (ip), vehicle: Klucel (hydroxypropylcellulose) (HPC)): 115 % of control | T/C (endpoint: mean survival time, dose: 20.0 mg/kg/injection, schedule: Q01DX005 (ip), vehicle: saline): 97 % of control | T/C (endpoint: mean survival time, dose: 20.0 mg/kg/injection, schedule: Q04DX003 (ip), vehicle: saline): 190 % of control | T/C (endpoint: mean survival time, dose: 20.0 mg/kg/injection, schedule: Q08DX002 (ip), vehicle: saline): 157 % of control | T/C [1]: 94 % of control | T/C (endpoint: mean survival time, dose: 40.0 mg/kg/injection, schedule: Q04DX003 (ip), vehicle: Klucel (hydroxypropylcellulose) (HPC)): 150 % of control | T/C (endpoint: mean survival time, dose: 40.0 mg/kg/injection, schedule: Q08DX002 (ip), vehicle: saline): 168 % of control | T/C (endpoint: mean survival time, dose: 50.0 mg/kg/injection, schedule: Q01DX005 (ip), vehicle: saline): 90 % of control | T/C [2]: 86 % of control | T/C (endpoint: mean survival time, dose: 60.0 mg/kg/injection, schedule: Q04DX003 (oral), vehicle: saline): 120 % of control | T/C (endpoint: mean survival time, dose: 80.0 mg/kg/injection, schedule: Q08DX002 (ip), vehicle: saline): 153 % of control | T/C (endpoint: mean survival time, dose: 96.0 mg/kg/injection, schedule: Q01DX005 (oral), vehicle: saline): 91 % of control | T/C (endpoint: mean survival time, dose: 100.0 mg/kg/injection, schedule: Q01DX005 (ip), vehicle: saline): 155 % of control | T/C (endpoint: mean survival time, dose: 120.0 mg/kg/injection, schedule: Q04DX003 (oral), vehicle: saline): 113 % of control | T/C (endpoint: mean survival time, dose: 125.0 mg/kg/injection, schedule: Q01DX015 (ip), vehicle: carboxymethylcellulose (CMC)): 114 % of control | T/C (endpoint: mean survival time, dose: 145.0 mg/kg/injection, schedule: Q01DX001 (ip), vehicle: saline with Tween-80): 160 % of control | T/C (endpoint: mean survival time, dose: 240.0 mg/kg/injection, schedule: Q04DX003 (oral), vehicle: saline): 119 % of control | T/C (endpoint: mean survival time, dose: 250.0 mg/kg/injection, schedule: Q01DX015 (ip), vehicle: carboxymethylcellulose (CMC)): 96 % of control | T/C (endpoint: mean survival time, dose: 480.0 mg/kg/injection, schedule: Q04DX003 (oral), vehicle: saline): 96 % of control | T/C (endpoint: mean survival time, dose: 960.0 mg/kg/injection, schedule: Q08DX002 (oral), vehicle: saline): 100 % of control | T/C (endpoint: median survival time, dose: 0.06 mg/kg/injection, schedule: Q03HX024 (ip), vehicle: saline): 112 % of control | T/C (endpoint: median survival time, dose: 0.07 mg/kg/injection, schedule: Q03HX024 (ip), vehicle: saline): 112 % of control | T/C (endpoint: median survival time, dose: 0.12 mg/kg/injection, schedule: Q03HX024 (ip), vehicle: saline): 121 % of control | T/C (endpoint: median survival time, dose: 0.13 mg/kg/injection, schedule: Q03HX024 (ip), vehicle: saline): 121 % of control | T/C (endpoint: median survival time, dose: 0.5 mg/kg/injection, schedule: Q03HX024 (ip), vehicle: saline): 101 % of control | T/C (endpoint: median survival time, dose: 1.0 mg/kg/injection, schedule: Q03HX024 (ip), vehicle: saline): 104 % of control | T/C (endpoint: median survival time, dose: 32.0 mg/kg/injection, schedule: Q03HX024 (ip), vehicle: saline): 153 % of control

O=C(N/N=C/c1cc(Cl)ccc1[N+](=O)[O-])c1cccc2ccccc12
T/C (endpoint: mean survival time, dose: 200.0 mg/kg/injection, schedule: Q01DX001 (ip), vehicle: saline): 101 % of control | T/C (endpoint: mean survival time, dose: 400.0 mg/kg/injection, schedule: Q01DX001 (ip), vehicle: saline): 97 % of control

CCN(CC)Cc1cc(Nc2c(C)cnc3cc(Cl)ccc23)ccc1O
T/C [1]: 94 % of control | T/C [2]: 90 % of control
